{
  "source": "ChEMBL document CHEMBL5365529",
  "about": "“Construction and Evaluation of Novel Dual-function Antifungal Inhibitors and Covalent Organic Framework Carriers Based on the Infection Microenvironment” (J Med Chem, 2023)",
  "key": {"Candida albicans [1]": {"test_system": "Candida albicans", "experiment": "Induction of mitochondrial membrane depolarization in Candida albicans SC5314 by JC-1 staining based flow cytometry (reference value: 12.51 %)", "type": "functional"}, "Candida tropicalis": {"test_system": "Candida tropicalis", "experiment": "Antifungal activity against Candida tropicalis ATCC 1369 assessed as fungal growth inhibition incubated for 72 hrs by CLSI based susceptibility test", "type": "functional"}, "Candida albicans [2]": {"test_system": "Candida albicans", "experiment": "Antifungal activity against FLC-resistant Candida albicans 632 assessed as fungal growth inhibition incubated for 72 hrs by CLSI based susceptibility test", "type": "functional"}, "Candida albicans [3]": {"test_system": "Candida albicans", "experiment": "Induction of apoptosis in Candida albicans SC5314 assessed as necrotic cells incubated for 48 hrs by annexin V-FITC/PI staining based flow cytometry (reference value: 2.12 %)", "type": "functional"}, "Candida albicans [4]": {"test_system": "Candida albicans", "experiment": "Antifungal activity against FLC-resistant Candida albicans 901 assessed as fungal growth inhibition incubated for 72 hrs by CLSI based susceptibility test", "type": "functional"}, "Candida albicans [5]": {"test_system": "Candida albicans", "experiment": "Antifungal activity against Candida albicans 901 infected in BALB/c mouse assessed as inhibition of fungal proliferation at 0.5 ug/g administered 6 times measured after 4 days in presence of Biphenyl isopropyl ester by Masson staining based analysis", "type": "functional, organism-based", "conditions": "dose 0.5 µg/g, time 4.0 day"}, "Candida albicans [6]": {"test_system": "Candida albicans", "experiment": "Antifungal activity against Candida albicans 901 infected in BALB/c mouse assessed as inhibition of fungal proliferation at 0.5 ug/g administered 6 times measured after 4 days in presence of Biphenyl isopropyl ester by GMS staining based analysis", "type": "functional, organism-based", "conditions": "dose 0.5 µg/g, time 4.0 day"}, "Candida albicans [7]": {"test_system": "Candida albicans", "experiment": "Antifungal activity against FLC-resistant Candida albicans CaR assessed as fungal growth inhibition incubated for 72 hrs by CLSI based susceptibility test", "type": "functional"}, "Candida albicans [8]": {"test_system": "Candida albicans", "experiment": "Antifungal activity against Candida albicans 901 infected in BALB/c mouse assessed as reduction in fungal growth at 0.5 ug/g administered 6 times measured after 4 days by H and E staining based analysis", "type": "functional, organism-based", "conditions": "dose 0.5 µg/g, time 4.0 day"}, "Candida albicans [9]": {"test_system": "Candida albicans", "experiment": "Antifungal activity against FLC-resistant Candida albicans 904 assessed as fungal growth inhibition incubated for 72 hrs by CLSI based susceptibility test", "type": "functional"}, "[10]": {"target": "T1, Lanosterol 14-alpha demethylase (Candida albicans (strain SC5314 / ATCC MYA-2876) (Yeast), UniProt P10613)", "T1 sequence (P10613 whole entry)": "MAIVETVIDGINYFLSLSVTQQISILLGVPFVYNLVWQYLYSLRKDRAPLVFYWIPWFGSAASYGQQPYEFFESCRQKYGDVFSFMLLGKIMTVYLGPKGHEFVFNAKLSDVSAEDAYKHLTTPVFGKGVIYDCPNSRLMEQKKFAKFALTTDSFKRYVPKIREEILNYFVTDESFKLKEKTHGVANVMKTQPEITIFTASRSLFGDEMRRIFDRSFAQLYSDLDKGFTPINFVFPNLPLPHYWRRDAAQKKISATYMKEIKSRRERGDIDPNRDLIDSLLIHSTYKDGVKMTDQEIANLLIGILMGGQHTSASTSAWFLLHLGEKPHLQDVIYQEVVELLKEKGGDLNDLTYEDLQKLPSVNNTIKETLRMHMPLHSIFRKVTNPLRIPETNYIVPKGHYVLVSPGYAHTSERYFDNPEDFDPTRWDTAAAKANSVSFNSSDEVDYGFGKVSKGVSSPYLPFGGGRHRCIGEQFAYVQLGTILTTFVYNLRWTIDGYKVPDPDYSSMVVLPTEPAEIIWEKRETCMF", "experiment": "Inhibition of CYP51 in Candida albicans SC5314 assessed as unknown sterol level at 4 ug/ml incubated for 16 hrs by GC-MS analysis (reference value: 5.35 %)", "parameters": "scale not given: the % may be the effect or the level left", "conditions": "at 4 µg/mL"}, "[11]": {"target": "T1, Lanosterol 14-alpha demethylase", "experiment": "Inhibition of CYP51 in Candida albicans SC5314 assessed as lanosterol level at 4 ug/ml incubated for 16 hrs by GC-MS analysis relative to control", "parameters": "scale not given: the % may be the effect or the level left", "conditions": "at 4 µg/mL"}, "Candida albicans [12]": {"test_system": "Candida albicans", "experiment": "Induction of immunity in BALB/c mouse infected with Candida albicans 901 assessed as decrease in PD-L1 level at 0.5 ug/g administered 6 times measured after 4 days by IHC analysis", "type": "functional, organism-based", "conditions": "dose 0.5 µg/g, time 4.0 day"}, "Candida albicans [13]": {"test_system": "Candida albicans", "experiment": "Antifungal activity against Candida albicans 901 infected in BALB/c mouse assessed as decrease in collagen fiber content at 0.5 ug/g administered 6 times measured after 4 days in presence of Biphenyl isopropyl ester by Masson staining based analysis", "type": "functional, organism-based", "conditions": "dose 0.5 µg/g, time 4.0 day"}, "Aspergillus fumigatus": {"test_system": "Aspergillus fumigatus", "experiment": "Antifungal activity against Aspergillus fumigatus KM8001 assessed as fungal growth inhibition incubated for 72 hrs by CLSI based susceptibility test", "type": "functional"}, "Mus musculus [14]": {"test_system": "Mus musculus", "experiment": "Antiinflammatory activity in BALB/c mouse infected with Candida albicans 901 assessed as decrease in kappaB-p65 level at 0.5 ug/g administered 6 times measured after 4 days by Western blot analysis", "type": "functional, organism-based", "conditions": "dose 0.5 µg/g, time 4.0 day"}, "Candida albicans [15]": {"test_system": "Candida albicans", "experiment": "Induction of immunity in BALB/c mouse infected with Candida albicans 901 assessed as decrease in PD-L1 level at 0.5 ug/g administered 6 times measured after 4 days in presence of Biphenyl isopropyl ester by IHC analysis", "type": "functional, organism-based", "conditions": "dose 0.5 µg/g, time 4.0 day"}, "Cryptococcus neoformans": {"test_system": "Cryptococcus neoformans", "experiment": "Antifungal activity against Cryptococcus neoformans ZKCC 2209 assessed as fungal growth inhibition incubated for 72 hrs by CLSI based susceptibility test", "type": "functional"}, "[16]": {"experiment": "Toxicity in BALB/c mouse infected with Candida albicans 901 assessed as pathological change in liver at 0.5 ug/g administered 6 times measured after 4 days in presence of Biphenyl isopropyl ester by H and E staining based analysis", "type": "tissue-based", "conditions": "in vivo, 96 h, dose 0.5 µg/g, time 4 day"}, "Mus musculus [17]": {"test_system": "Mus musculus", "experiment": "Antiinflammatory activity in BALB/c mouse infected with Candida albicans 901 assessed as decrease in NLRP3 level at 0.5 ug/g administered 6 times measured after 4 days by Western blot analysis", "type": "functional, organism-based", "conditions": "dose 0.5 µg/g, time 4.0 day"}, "Candida albicans [18]": {"test_system": "Candida albicans", "experiment": "Antifungal activity against Candida albicans 901 infected in BALB/c mouse assessed as repair of tissue damage at 0.5 ug/g administered 6 times measured after 4 days in presence of Biphenyl isopropyl ester by Masson staining based analysis", "type": "functional, organism-based", "conditions": "dose 0.5 µg/g, time 4.0 day"}, "Candida albicans [19]": {"test_system": "Candida albicans", "experiment": "Induction of immunity in BALB/c mouse infected with Candida albicans 901 assessed as decrease in PD-L1 level at 0.5 ug/g administered 6 times measured after 4 days in presence of Biphenyl isopropyl ester by Western blot analysis", "type": "functional, organism-based", "conditions": "dose 0.5 µg/g, time 4.0 day"}, "Candida albicans [20]": {"test_system": "Candida albicans", "experiment": "Induction of apoptosis in Candida albicans SC5314 assessed as apoptotic cells incubated for 48 hrs by annexin V-FITC/PI staining based flow cytometry (reference value: 2.12 %)", "type": "functional"}, "[21]": {"experiment": "Toxicity in BALB/c mouse infected with Candida albicans 901 assessed as pathological change in kidney at 0.5 ug/g administered 6 times measured after 4 days in presence of Biphenyl isopropyl ester by H and E staining based analysis", "type": "tissue-based", "conditions": "in vivo, 96 h, dose 0.5 µg/g, time 4 day"}, "Candida albicans [22]": {"test_system": "Candida albicans", "experiment": "Induction of immunity in BALB/c mouse infected with Candida albicans 901 assessed as decrease in PD-L1 level at 0.5 ug/g administered 6 times measured after 4 days by Western blot analysis", "type": "functional, organism-based", "conditions": "dose 0.5 µg/g, time 4.0 day"}, "Candida albicans [23]": {"test_system": "Candida albicans", "experiment": "Antifungal activity against FLC-resistant Candida albicans 17# assessed as fungal growth inhibition incubated for 72 hrs by CLSI based susceptibility test", "type": "functional"}, "Nakaseomyces glabratus": {"test_system": "Nakaseomyces glabratus", "experiment": "Antifungal activity against Candida glabrata assessed as fungal growth inhibition incubated for 72 hrs by CLSI based susceptibility test", "type": "functional"}, "[24]": {"experiment": "Toxicity in BALB/c mouse infected with Candida albicans 901 assessed as pathological change in lung at 0.5 ug/g administered 6 times measured after 4 days in presence of Biphenyl isopropyl ester by H and E staining based analysis", "type": "tissue-based", "conditions": "in vivo, 96 h, dose 0.5 µg/g, time 4 day"}, "[25]": {"experiment": "Toxicity in BALB/c mouse infected with Candida albicans 901 assessed as pathological change in spleen at 0.5 ug/g administered 6 times measured after 4 days in presence of Biphenyl isopropyl ester by H and E staining based analysis", "type": "tissue-based", "conditions": "in vivo, 96 h, dose 0.5 µg/g, time 4 day"}, "Candida albicans [26]": {"test_system": "Candida albicans", "experiment": "Antifungal activity against Candida albicans 901 infected in BALB/c mouse assessed as decrease in collagen fiber content at 0.5 ug/g administered 6 times measured after 4 days in presence of Biphenyl isopropyl ester by GMS staining based analysis", "type": "functional, organism-based", "conditions": "dose 0.5 µg/g, time 4.0 day"}, "[27]": {"target": "T1, Lanosterol 14-alpha demethylase", "experiment": "Inhibition of CYP51 in Candida albicans SC5314 using lanosterol as substrate incubated for 60 mins by HPLC analysis"}, "[28]": {"experiment": "Toxicity in BALB/c mouse infected with Candida albicans 901 assessed as pathological change in heart at 0.5 ug/g administered 6 times measured after 4 days in presence of Biphenyl isopropyl ester by H and E staining based analysis", "type": "tissue-based", "conditions": "in vivo, 96 h, dose 0.5 µg/g, time 4 day"}, "Mus musculus [29]": {"test_system": "Mus musculus", "experiment": "Antiinflammatory activity in BALB/c mouse infected with Candida albicans 901 assessed as decrease in INF-gamma level at 0.5 ug/g administered 6 times measured after 4 days by Western blot analysis", "type": "functional, organism-based", "conditions": "dose 0.5 µg/g, time 4.0 day"}, "Candida albicans [30]": {"test_system": "Candida albicans", "experiment": "Antifungal activity against Candida albicans 901 infected in BALB/c mouse assessed as repair of tissue damage at 0.5 ug/g administered 6 times measured after 4 days in presence of Biphenyl isopropyl ester by GMS staining based analysis", "type": "functional, organism-based", "conditions": "dose 0.5 µg/g, time 4.0 day"}, "Candida albicans [31]": {"test_system": "Candida albicans", "experiment": "Antifungal activity against Candida albicans SC5314 assessed as fungal growth inhibition incubated for 72 hrs by CLSI based susceptibility test", "type": "functional"}},
  "note": "The source made the active and inactive calls. No cut-off for these calls is given here.",
  "data": [
    {"smiles": "CC(=O)N1CCN(c2ccc(OCC3COC(Cn4ccnc4)(c4ccc(Cl)cc4Cl)O3)cc2)CC1", "note": "(stereo not given) [KETOCONAZOLE]", "values": [
      {"measurement": "Activity", "setting": "Candida albicans [1]", "result": 34.74, "unit": "%"},
      {"measurement": "MIC50", "setting": "Candida tropicalis", "result": 0.5, "unit": "µg/mL"},
      {"measurement": "MIC50", "setting": "Candida albicans [2]", "result": "≥ 8", "unit": "µg/mL"},
      {"measurement": "Activity", "setting": "Candida albicans [3]", "result": 25.91, "unit": "%"},
      {"measurement": "MIC50", "setting": "Candida albicans [4]", "result": 4, "unit": "µg/mL"},
      {"measurement": "inhibition", "setting": "Candida albicans [5]", "result": "Active"},
      {"measurement": "inhibition", "setting": "Candida albicans [6]", "result": "Active"},
      {"measurement": "MIC50", "setting": "Candida albicans [7]", "result": "≥ 8", "unit": "µg/mL"},
      {"measurement": "Activity", "setting": "Candida albicans [8]", "result": "Active"},
      {"measurement": "MIC50", "setting": "Candida albicans [9]", "result": 4, "unit": "µg/mL"},
      {"measurement": "Activity", "setting": "[10]", "result": 5.07, "unit": "%"},
      {"measurement": "Activity", "setting": "[11]", "result": 13.06, "unit": "%"},
      {"measurement": "Activity", "setting": "Candida albicans [12]", "result": "Active"},
      {"measurement": "Activity", "setting": "Candida albicans [13]", "result": "Active"},
      {"measurement": "MIC50", "setting": "Aspergillus fumigatus", "result": 4, "unit": "µg/mL"},
      {"measurement": "Activity", "setting": "Mus musculus [14]", "result": "inactive"},
      {"measurement": "Activity", "setting": "Candida albicans [15]", "result": "Active"},
      {"measurement": "MIC50", "setting": "Cryptococcus neoformans", "result": 4, "unit": "µg/mL"},
      {"measurement": "Activity", "setting": "[16]", "result": "Non-Toxic"},
      {"measurement": "Activity", "setting": "Mus musculus [17]", "result": "inactive"},
      {"measurement": "Activity", "setting": "Candida albicans [18]", "result": "Active"},
      {"measurement": "Activity", "setting": "Candida albicans [19]", "result": "Active"},
      {"measurement": "Activity", "setting": "Candida albicans [20]", "result": 25.91, "unit": "%"},
      {"measurement": "Activity", "setting": "[21]", "result": "Non-Toxic"},
      {"measurement": "Activity", "setting": "Candida albicans [22]", "result": "Active"},
      {"measurement": "MIC50", "setting": "Candida albicans [23]", "result": 4, "unit": "µg/mL"},
      {"measurement": "MIC50", "setting": "Nakaseomyces glabratus", "result": 1, "unit": "µg/mL"},
      {"measurement": "Activity", "setting": "[24]", "result": "Non-Toxic"},
      {"measurement": "Activity", "setting": "[25]", "result": "Non-Toxic"},
      {"measurement": "Activity", "setting": "Candida albicans [26]", "result": "Active"},
      {"measurement": "IC50", "setting": "[27]", "result": 130, "unit": "nM"},
      {"measurement": "Activity", "setting": "[28]", "result": "Non-Toxic"},
      {"measurement": "Activity", "setting": "Mus musculus [29]", "result": "inactive"},
      {"measurement": "Activity", "setting": "Candida albicans [30]", "result": "Active"},
      {"measurement": "MIC50", "setting": "Candida albicans [31]", "result": 0.25, "unit": "µg/mL"}
    ]}
  ]
}
